Source: patent US5129951A, “Aromatic aldehydes and alcohols as potato tuber sprout inhibitors” (priority 1991, dated 1992)
Entries after “also recorded” stand apart in the source; their conditions may differ. Like-named read-outs stand apart in the source and are kept apart here.

Assays:
potato tubers [1] = experiment: Tuber texture and quality 14 days after direct application of aromatic compounds (Example 3); settings: for Tuber Texture: control SS
potato tubers [2] = experiment: Tuber sprouting 14 days after direct application of aromatic compounds (Example 3); format: in vivo, Solanum tuberosum L. cv `Norchip`; settings: for % Eyes Sprouted: 25° C., control 98, LSD (0.05) 14
potato tubers [3] = experiment: Tuber texture after removal from exposure to volatilized aromatics (Example 2); format: in vivo, Solanum tuberosum L. cv `Norchip`
Description: (§1) Each treatment consisted of placing the tubers in sealed 9.2 l flasks containing excess levels of the treatment compounds at 25° C. as in Example 1. Three tubers were then removed from each treatment after 1, 2, 4, 7, and 10 days, and placed in flasks containing fresh humidified air (free of any additional volatilized compounds) at 25° C. Control tubers were placed in sealed flasks lacking any added compounds and three were removed after 1 and 10 days. Fourteen days after removal from the sealed flasks containing treatment compounds, all tubers were examined for percentage of eyes sprouted, tuber texture, and fungal growth. Each treatment was replicated once and each experiment was repeated once.

[4] = cited from earlier work; for Temperature at Which Vapor Pressure Equals 1 mm Hg: vapor pressure 1 mm Hg
fungi [5] = experiment: Fungal growth on tubers after removal from exposure to volatilized aromatics (Example 2); format: in vivo
Description: as §1

potato tubers [6] = experiment: Tuber sprouting after removal from exposure to volatilized aromatics for 1, 2, 4, 7 or 10 days (Example 2); format: in vivo, Solanum tuberosum L. cv `Norchip`; settings: 14 days after removal; for % Eyes Sprouted: 25° C., LSD (0.05) 24
Description: as §1

[7] = Theoretical saturated headspace concentration calculated from known vapor pressures; format: physicochemical; settings: calculated from known vapor pressures by Ideal Gas Law
Description: Because these compounds were difficult to quantitate by gas chromatography at the concentration levels in saturated headspaces, theoretical saturated concentrations were calculated by converting known vapor pressures of each compound at 25° C. to molar concentrations using the Ideal Gas Law, […], where n/V is the molar concentration, P is the partial pressure (atm), R is the Ideal Gas constant (0.0821 l atm/mol ° K.), and T is the temperature (° K.).

fungi [8] = experiment: Fungal growth 14 days after direct application of aromatic compounds (Example 3); format: in vivo
potato tubers [9] = experiment: Tuber sprouting after removal from exposure to volatilized aromatics for 1, 2, 4, 7 or 10 days (Example 2); format: in vivo, Solanum tuberosum L. cv `Norchip`; settings: exposure for 10 days, 75 days after removal
potato tubers [10] = experiment: Tuber texture/quality after exposure to compounds in headspace gas for 7 days (Example 1); settings: 7 days in saturated headspace gas, 25° C.
fungi [11] = experiment: Fungal growth on tubers exposed to compounds in headspace gas for 7 days (Example 1); format: in vivo; settings: 7 days in saturated headspace gas, 25° C.; for Fungal Growth: control ++; for Fungal growth: key: -: no fungi visible; +: = some fungi; ++: heavy fungal growth
Description: (control flasks lacked any compounds).

potato tubers [12] = experiment: Sprout inhibition of tubers exposed to compounds in headspace gas for 7 days (Example 1); format: in vivo, Solanum tuberosum L. cv `Norchip`; settings: 7 days in saturated headspace gas, 25° C.; for % Eyes Sprouted: dark, control 100, LSD (0.05) 12
plants = settings: Putnam and Tang; cited from earlier work
potato tubers [13] = settings: in vivo
potato tubers [14] = settings: in vivo; remark: listed apart in the source
[15] = 1 day exposure, 14 days after removal, control +
[16] = 2 days exposure, 14 days after removal
[17] = 4 days exposure, 14 days after removal
[18] = 7 days exposure, 14 days after removal
[19] = 10 days exposure, 14 days after removal, control +
[20] = 100% (pure, sprayed), control +
[21] = 14 days after removal from exposure

Compound	% Eyes Sprouted (potato tubers [2]; 1% emulsion (dip))	% Eyes Sprouted (potato tubers [2]; 10% emulsion (dip))	Temperature at Which Vapor Pressure Equals 1 mm Hg [4]	Solubility in Water at 25° C. [4]	Fungal Growth (fungi [5]; [18])	Fungal Growth (fungi [5]; [19])	% Eyes Sprouted (potato tubers [6]; 1 day exposure, control 96)	% Eyes Sprouted (potato tubers [6]; 2 days exposure)	% Eyes Sprouted (potato tubers [6]; 4 days exposure)	% Eyes Sprouted (potato tubers [6]; 7 days exposure)	% Eyes Sprouted (potato tubers [6]; 10 days exposure, control 100)	Concentration of Saturated Headspace at 25° C. [7]	Fungal Growth (fungi [8]; 10% emulsion (dip), control +)	tuber condition (potato tubers [10])	effect on fungal growth (fungi [11])	Fungal Growth (fungi [11])	effect on tuber sprouting (potato tubers [12])	% Eyes Sprouted (potato tubers [12])	also measured
O=Cc1ccccc1 [Benzaldehyde]	43%	0%	26.2 °C	sl. soluble	-	-	88%	42%	14%	2%	0%	48 µM	++	firm and appeared healthy	prevented any visible fungal growth	-	completely inhibited sprouting	0%	tuber condition (potato tubers [1]; 10% emulsion): remained hard, with no necrosis or surface pitting; Tuber Texture (potato tubers [1]; 100% (pure, sprayed)): S,N; inhibition of sprouting (potato tubers [2]; 10% emulsion): completely inhibited sprouting without damaging the potato tubers; % Eyes Sprouted (potato tubers [2]; 100% (pure, sprayed)): 0%; tuber firmness (potato tubers [3]; 1 day treatment, 14 days after removal): slightly soft; Fungal Growth (fungi [5]; [15]): -; Fungal Growth (fungi [5]; [16]): -; Fungal Growth (fungi [5]; [17]): -; inhibition of tuber sprouting (potato tubers [6]; exposure for 7 or fewer days): did not completely inhibit sprouting; inhibition of tuber sprouting (potato tubers [6]; exposure for 10 days): completely inhibited sprouting; Fungal Growth (fungi [8]; 10% emulsion): heavily covered with fungal growth; Fungal Growth (fungi [8]; [20]): ++; sprouting (potato tubers [9]): remained unsprouted
O=C(O)c1ccccc1 [Benzoic acid]			96.0 °C									0.1 µM		soft to the touch	present to some extent	+	no significant effect on tuber sprouting; also recorded: little or no inhibition of sprouting	98%	reported allelopathy (plants): allelopathic
OCC=Cc1ccccc1 [Cinnamyl alcohol]				soluble								2.4 µM			present to some extent	+	no significant effect on tuber sprouting	91%	tuber condition (potato tubers [13]): slightly soft
CC=Cc1ccc(O)c(OC)c1 [Isoeugenol]												1.3 µM			especially heavy growth	++	no significant effect on tuber sprouting	89%	tuber condition (potato tubers [13]): remained firm
O=Cc1ccccc1O [Salicylaldehyde]	0%	0%			-	-	0%	0%	0%	0%	0%	36 µM	-	firm and appeared healthy	prevented any visible fungal growth	-	completely inhibited sprouting	0%	Tuber Texture (potato tubers [1]; 1% emulsion (dip)): S,N; Tuber Texture (potato tubers [1]; 10% emulsion (dip)): S,N; Tuber Texture (potato tubers [1]; 100% (pure, sprayed)): S,N; % Eyes Sprouted (potato tubers [2]; 100% (pure, sprayed)): 0%; tuber firmness (potato tubers [3]; [21]): firm; Fungal Growth (fungi [5]; [15]): -; Fungal Growth (fungi [5]; [16]): -; Fungal Growth (fungi [5]; [17]): -; Fungal Growth (fungi [5]; [21]): lacked visible fungal growth; inhibition of tuber sprouting (potato tubers [6]; after 1 or more days of treatment): completely inhibited tuber sprouting; Fungal Growth (fungi [8]; 1% emulsion (dip), control +): ++; Fungal Growth (fungi [8]; [20]): -; sprouting (potato tubers [9]): remained unsprouted
Cc1ccc(C(C)C)c(O)c1 [Thymol]	0%	0%			-	-	83%	60%	44%	6%	0%	2.9 µM	-	firm and appeared healthy	prevented any visible fungal growth	-	completely inhibited sprouting	0%	inhibition of sprouting (potato tubers [2]; 1% emulsion): suppressed sprouting; tuber firmness (potato tubers [3]; in vivo): slightly soft; inhibition of tuber sprouting (potato tubers [6]; exposure for 7 or fewer days): did not completely inhibit sprouting; inhibition of tuber sprouting (potato tubers [6]; exposure for 10 days): completely inhibited sprouting; Fungal Growth (fungi [8]; 1% emulsion (dip), control +): -; tuber condition (potato tubers [14]): large pitted areas on the tuber surface near each eye
COc1cc(C=O)ccc1O [Vanillin]			107.0 °C	sl. soluble								0.1 µM			present to some extent	+	only slightly suppressed sprouting; also recorded: little or no inhibition of sprouting	87%	reported allelopathy (plants): allelopathic
